# From ChEMBL document CHEMBL3734705, “Synthesis and in vitro cytotoxicity of novel C-12 substituted-14-deoxy-andrographolide derivatives as potent anti-cancer agents” (2015)
# Assays:
# [1] = Cytotoxicity against human RPMI8226 cells assessed as growth level at 10 uM after 48 hrs by SRB assay; assay type: functional, RPMI-8226
# A549 [2] = assay: Cytotoxicity against human A549 cells assessed as growth level at 10 uM after 48 hrs by SRB assay; assay type: functional
# [3] = Cytotoxicity against human HOP92 cells assessed as growth level at 10 uM after 48 hrs by SRB assay; assay type: functional, HOP-92
# NCI-H226 = assay: Cytotoxicity against human NCI-H226 cells assessed as growth level at 10 uM after 48 hrs by SRB assay; assay type: functional
# NCI-H522 = assay: Cytotoxicity against human NCI-H522 cells assessed as growth level at 10 uM after 48 hrs by SRB assay; assay type: functional
# [4] = Cytotoxicity against human COLO205 cells assessed as growth level at 10 uM after 48 hrs by SRB assay; assay type: functional, COLO 205
# [5] = Cytotoxicity against human HCT15 cells assessed as growth level at 10 uM after 48 hrs by SRB assay; assay type: functional, HCT-15
# HT-29 = assay: Cytotoxicity against human HT-29 cells assessed as growth level at 10 uM after 48 hrs by SRB assay; assay type: functional
# [6] = Cytotoxicity against human SF268 cells assessed as growth level at 10 uM after 48 hrs by SRB assay; assay type: functional, SF-268
# [7] = Cytotoxicity against human SF539 cells assessed as growth level at 10 uM after 48 hrs by SRB assay; assay type: functional, SF-539
# U-251 [8] = assay: Cytotoxicity against human U251 cells assessed as growth level at 10 uM after 48 hrs by SRB assay; assay type: functional
# M14 [9] = assay: Cytotoxicity against human M14 cells assessed as growth level at 10 uM after 48 hrs by SRB assay; assay type: functional
# MDA-MB-435 [10] = assay: Cytotoxicity against human MDA-MB-435 cells assessed as growth level at 10 uM after 48 hrs by SRB assay; assay type: functional
# [11] = Cytotoxicity against human OVCAR4 cells assessed as growth level at 10 uM after 48 hrs by SRB assay; assay type: functional, OVCAR-4
# [12] = Cytotoxicity against human OVCAR8 cells assessed as growth level at 10 uM after 48 hrs by SRB assay; assay type: functional, OVCAR-8
# [13] = Cytotoxicity against human NCI-ADR-RES cells assessed as growth level at 10 uM after 48 hrs by SRB assay; assay type: functional
# 786-0 = assay: Cytotoxicity against human 786-0 cells assessed as growth level at 10 uM after 48 hrs by SRB assay; assay type: functional
# [14] = Cytotoxicity against human RXF393 cells assessed as growth level at 10 uM after 48 hrs by SRB assay; assay type: functional, RXF 393
# [15] = Cytotoxicity against human TK10 cells assessed as growth level at 10 uM after 48 hrs by SRB assay; assay type: functional, TK-10
# [16] = Cytotoxicity against human DU145 cells assessed as growth level at 10 uM after 48 hrs by SRB assay; assay type: functional, DU-145
# MDA-MB-231 [17] = assay: Cytotoxicity against human MDA-MB-231 cells assessed as growth level at 10 uM after 48 hrs by SRB assay; assay type: functional
# [18] = Cytotoxicity against human BT549 cells assessed as growth level at 10 uM after 48 hrs by SRB assay; assay type: functional, BT-549
# CCRF-CEM [19] = assay: Cytotoxicity against human CCRF-CEM cells assessed as growth inhibition at 10 uM after 48 hrs by SRB assay; assay type: functional; settings: read-out: GI
# K562 = assay: Cytotoxicity against human K562 cells assessed as growth inhibition at 10 uM after 48 hrs by SRB assay; assay type: functional; settings: K562, 48 h, read-out: GI
# [20] = Cytotoxicity against human RPMI8226 cells assessed as growth inhibition at 10 uM after 48 hrs by SRB assay; assay type: functional; settings: RPMI-8226, 48 h, read-out: GI
# A549 [21] = assay: Cytotoxicity against human A549 cells assessed as growth inhibition at 10 uM after 48 hrs by SRB assay; assay type: functional; settings: A549, 48 h, read-out: GI
# EKVX = assay: Cytotoxicity against human EKVX cells assessed as growth inhibition at 10 uM after 48 hrs by SRB assay; assay type: functional; settings: read-out: GI
# [22] = Cytotoxicity against human HCT15 cells assessed as growth inhibition at 10 uM after 48 hrs by SRB assay; assay type: functional; settings: HCT-15, 48 h, read-out: GI
# [23] = Cytotoxicity against human SW620 cells assessed as growth inhibition at 10 uM after 48 hrs by SRB assay; assay type: functional; settings: SW-620, 48 h, read-out: GI
# [24] = Cytotoxicity against human SF268 cells assessed as growth inhibition at 10 uM after 48 hrs by SRB assay; assay type: functional; settings: SF-268, 48 h, read-out: GI
# U-251 [25] = assay: Cytotoxicity against human U251 cells assessed as growth inhibition at 10 uM after 48 hrs by SRB assay; assay type: functional; settings: U-251, 48 h, read-out: GI
# M14 [26] = assay: Cytotoxicity against human M14 cells assessed as growth inhibition at 10 uM after 48 hrs by SRB assay; assay type: functional; settings: M14, 48 h, read-out: GI
# MDA-MB-435 [27] = assay: Cytotoxicity against human MDA-MB-435 cells assessed as growth inhibition at 10 uM after 48 hrs by SRB assay; assay type: functional; settings: MDA-MB-435, 48 h, read-out: GI
# SK-MEL-28 = assay: Cytotoxicity against human SK-MEL-28 cells assessed as growth inhibition at 10 uM after 48 hrs by SRB assay; assay type: functional; settings: SK-MEL-28, 48 h, read-out: GI
# [28] = Cytotoxicity against human UACC257 cells assessed as growth inhibition at 10 uM after 48 hrs by SRB assay; assay type: functional; settings: UACC-257, 48 h, read-out: GI
# [29] = Cytotoxicity against human IGROV1 cells assessed as growth inhibition at 10 uM after 48 hrs by SRB assay; assay type: functional; settings: IGROV-1, 48 h, read-out: GI
# [30] = Cytotoxicity against human NCI-ADR-RES cells assessed as growth inhibition at 10 uM after 48 hrs by SRB assay; assay type: functional; settings: read-out: GI
# SN12C = assay: Cytotoxicity against human SN12C cells assessed as growth inhibition at 10 uM after 48 hrs by SRB assay; assay type: functional; settings: read-out: GI
# [31] = Cytotoxicity against human PC3 cells assessed as growth inhibition at 10 uM after 48 hrs by SRB assay; assay type: functional; settings: PC-3, 48 h, read-out: GI
# MCF7 = assay: Cytotoxicity against human MCF7 cells assessed as growth inhibition at 10 uM after 48 hrs by SRB assay; assay type: functional; settings: MCF7, 48 h, read-out: GI
# MDA-MB-231 [32] = assay: Cytotoxicity against human MDA-MB-231 cells assessed as growth inhibition at 10 uM after 48 hrs by SRB assay; assay type: functional; settings: MDA-MB-231, 48 h, read-out: GI
# T47D = assay: Cytotoxicity against human T47D cells assessed as growth inhibition at 10 uM after 48 hrs by SRB assay; assay type: functional; settings: read-out: GI
# CCRF-CEM [33] = assay: Cytotoxicity against human CCRF-CEM cells assessed as growth level at 10 uM after 48 hrs by SRB assay; assay type: functional
smiles,measurement,setting,value
C=C1CC[C@@H]2[C@](C)(COC(C)=O)[C@H](OC(C)=O)CC[C@@]2(C)[C@@H]1CC(NCc1cccc(Cl)c1)C1=CCOC1=O (mixture of isomers),Activity,[1],27.25%
same,Activity,A549 [2],54.21%
same,Activity,[3],66.34%
same,Activity,NCI-H226,46.32%
same,Activity,NCI-H522,52.45%
same,Activity,[4],36.77%
same,Activity,[5],37.72%
same,Activity,HT-29,25.54%
same,Activity,[6],53.28%
same,Activity,[7],74.12%
same,Activity,U-251 [8],30.91%
same,Activity,M14 [9],55.02%
same,Activity,MDA-MB-435 [10],51.65%
same,Activity,[11],50.4%
same,Activity,[12],42.73%
same,Activity,[13],60.33%
same,Activity,786-0,62%
same,Activity,[14],50.51%
same,Activity,[15],63.29%
same,Activity,[16],81.85%
same,Activity,MDA-MB-231 [17],65%
same,Activity,[18],49.66%
same,inhibition of growth at 10 µM,CCRF-CEM [19],57.7%
same,inhibition of growth at 10 µM,K562,81.5%
same,inhibition of growth at 10 µM,[20],72.8%
same,inhibition of growth at 10 µM,A549 [21],45.8%
same,inhibition of growth at 10 µM,EKVX,22.1%
same,inhibition of growth at 10 µM,[22],62.3%
same,inhibition of growth at 10 µM,[23],61.7%
same,inhibition of growth at 10 µM,[24],46.7%
same,inhibition of growth at 10 µM,U-251 [25],69.1%
same,inhibition of growth at 10 µM,M14 [26],45%
same,inhibition of growth at 10 µM,MDA-MB-435 [27],48.4%
same,inhibition of growth at 10 µM,SK-MEL-28,23.4%
same,inhibition of growth at 10 µM,[28],74.8%
same,inhibition of growth at 10 µM,[29],35.9%
same,inhibition of growth at 10 µM,[30],39.7%
same,inhibition of growth at 10 µM,SN12C,37.9%
same,inhibition of growth at 10 µM,[31],69.9%
same,inhibition of growth at 10 µM,MCF7,57%
same,inhibition of growth at 10 µM,MDA-MB-231 [32],35%
same,inhibition of growth at 10 µM,T47D,49.3%
same,Activity,CCRF-CEM [33],42.29%
C=C1CC[C@@H]2[C@](C)(COC(C)=O)[C@H](OC(C)=O)CC[C@@]2(C)[C@@H]1CC(NCc1ccccc1)C1=CCOC1=O (mixture of isomers),Activity,[1],3.18%
same,Activity,A549 [2],49.21%
same,Activity,[3],41.66%
same,Activity,NCI-H226,11.36%
same,Activity,[4],45.59%
same,Activity,[5],40.99%
same,Activity,[6],62.15%
same,Activity,[7],79.48%
same,Activity,U-251 [8],47.58%
same,Activity,M14 [9],42.07%
same,Activity,MDA-MB-435 [10],27.9%
same,Activity,[11],35.88%
same,Activity,[12],28.22%
same,Activity,[13],23.47%
same,Activity,786-0,71.35%
same,Activity,[14],74.33%
same,Activity,[16],67.16%
same,Activity,MDA-MB-231 [17],64.69%
same,Activity,[18],28.11%
same,inhibition of growth at 10 µM,CCRF-CEM [19],79.1%
same,inhibition of growth at 10 µM,K562,75.3%
same,inhibition of growth at 10 µM,[20],96.8%
same,inhibition of growth at 10 µM,A549 [21],50.8%
same,inhibition of growth at 10 µM,EKVX,46.1%
same,inhibition of growth at 10 µM,[22],59%
same,inhibition of growth at 10 µM,[23],52.7%
same,inhibition of growth at 10 µM,[24],37.9%
same,inhibition of growth at 10 µM,U-251 [25],52.4%
same,inhibition of growth at 10 µM,M14 [26],57.9%
same,inhibition of growth at 10 µM,MDA-MB-435 [27],72.1%
same,inhibition of growth at 10 µM,SK-MEL-28,31.4%
same,inhibition of growth at 10 µM,[28],67.2%
same,inhibition of growth at 10 µM,[29],37.1%
same,inhibition of growth at 10 µM,[30],76.5%
same,inhibition of growth at 10 µM,SN12C,41.8%
same,inhibition of growth at 10 µM,[31],89.9%
same,inhibition of growth at 10 µM,MCF7,70.2%
same,inhibition of growth at 10 µM,MDA-MB-231 [32],35.3%
same,inhibition of growth at 10 µM,T47D,85.8%
same,Activity,CCRF-CEM [33],20.9%
